# Columns and labels:
# MKI67 (Ki67) = experiment: Immunohistochemistry of endometriotic lesions, MKI67 (cell proliferation); type: in vivo, mice; settings: 3 weeks; for % of MKI67 positive cells/total cells/0.007 mm^2, Stroma: control 13.8 ± 1.4
# Description: (§1) The presence and location of different proteins in the tissues obtained from the recipient mice. Samples of uterine tissue were isolated from the recipient mice, fixed by standard histological methods, and embedded in paraffin. Thin sections (5 μm) of the paraffin-embedded tissues were screened with standard immunohistochemical methods using antibodies to identify the expression of in the uterine tissues.
# (§2) Primary antibodies that recognized MKI67 (Ki67), PECAM1 (CD31), ESR1, PGR, p-CHUK (IKK), p-STAT3, NOS2 (iNOS) and PTGS2 (COX2), and Vectastain Elite ABC Kit (# PK-6101), Mouse on Mouse Basic Kit (# BMK-2202, Vector laboratories) or DyLight-conjugated secondary antibody (#711-516-152, Jackson ImmunoResearch Lab) were used to show the presence of the proteins in the tissues, which were examined under microscopes.
# (§3) The primary antibodies used in these analyses were: anti-MKI67 (Ki67, 1:200 dilution, 550609, BD Biosciences), anti-PECAM1 (CD31, 1:100 dilution, ab28364, Abcam), anti-ESR1 (1:100 dilution, sc-542, Santa Cruz Biotechnology), anti-PGR (1:200 dilution, RB-9017-P0, Thermo Scientific), anti-p-CHUK (IKK, 1:150 dilution, 2697, Cell Signaling Technology), anti-p-STAT3 (1:50 dilution, 9145, Cell Signaling Technology), anti-NOS2 (iNOS, 1:50 dilution, 610333, BD Biosciences) and anti-PTGS2 (COX2, 1:50 dilution, RM-9121, Thermo Scientific).
# (§4) The expression of MKI67, ESR1, PGR, p-CHUK, p-STAT3, NOS2 and PTGS2 proteins in uterine tissues, as determined by immunohistochemical analysis of uterine tissue sections, was semiquantitatively analyzed. Levels of apoptosis were analyzed by TUNEL assay and also semiquantitatively analyzed. Histological sections were obtained from 4 different lesions. For each section, three different areas measuring 0.007 mm^2 were chosen. In each of those areas, the total number of epithelial or stromal cells was counted, as was the number of cells that tested positive for expressing MKI67 (a marker of cellular proliferation), steroid receptors ESR1 and PGR, and inflammatory signaling molecules p-CHUK, p-STAT3, NOS2 and PTGS2 proteins.
# PECAM1 (CD31) = experiment: Immunohistochemistry of endometriotic lesions, PECAM1 (endothelial cells); type: in vivo, mice; settings: 3 weeks, control 38.3 ± 3.6
# Description: as §1
# as §2, with “microscopes. […]” for “microscopes.”
# The expression of PECAM1, a marker of endothelial cells, was semiquantitatively analyzed using areas of 0.02 mm^2 (3 different areas counted from each section, with sections obtained from 4 different lesions), and semiquantitatively analyzed.
# ESR1 = experiment: Immunohistochemistry of endometriotic lesions, ESR1; type: in vivo, mice; settings: 3 weeks; for % of ESR1 positive cells/total cells/0.007 mm^2, Stroma: control 45.6 ± 6.9; for % of ESR1 positive cells/total cells/0.007 mm^2, Epithelium: control 79.1 ± 3.7
# Description: as §1, §2, §3, §4
# p-STAT3 = experiment: Immunohistochemistry of endometriotic lesions, p-STAT3; type: in vivo, mice; settings: 3 weeks; for % of p-STAT3 positive cells/total cells/0.007 mm^2, Stroma: control 11.5 ± 4.4
# Description: as §4, with “The presence and location of different proteins in the tissues obtained from the recipient mice. Samples of uterine tissue were isolated from the recipient mice, fixed by standard histological methods, and embedded in paraffin. Thin sections (5 μm) of the paraffin-embedded tissues were screened with standard immunohistochemical methods using antibodies to identify the expression of in the uterine tissues. […] The expression” for “The expression”, “semiquantitatively analyzed. […] Histological sections” for “semiquantitatively analyzed. Histological sections”
# PTGS2 (COX2) = experiment: Immunohistochemistry of endometriotic lesions, PTGS2; type: in vivo, mice; settings: 3 weeks; for % of PTGS2 positive cells/total cells/0.007 mm^2, Stroma: control 20.1 ± 2.2; for % of PTGS2 positive cells/total cells/0.007 mm^2, Epithelium: control 98.4 ± 0.5
# Description: as §1, §2, §3, §4
# The expression of PTGS2 (COX2), an inflammatory molecule […] by NFκB and STAT3 signaling, was examined with a primary antibody against PTGS2.
# endometriotic lesions = experiment: Endometriotic lesions examined on PND 21 (Study 2); type: in vivo, mice; settings: 200 mg/kg b.w./day; examined 3 weeks after the final dosage
# Experimental: The sham surgery was performed following the same steps as the endometriosis surgery except that no donor tissues were implanted onto the peritoneal walls of those mice; only sutures were applied to the peritoneal walls. […] The recipient mice continued receiving oral daily niclosamide treatments until mouse pups were born, after which niclosamide treatment was discontinued. Three weeks after the pups were born, on postnatal day (PND) 21, the recipient mice were necropsied and the pups were weaned. For each mated mouse, the following parameters were measured and recorded: the time of the formation of the vaginal plug after mating (days); the length of time that the mated mouse gestated or was pregnant (days); the number of pups born to each mated mouse; and the size and volume of the endometriotic lesions harvested from the mice after necropsy. Tissues were harvested from the mice, including endometriotic lesions and peritoneal walls to analyze the expression of proteins and genes of interest.
# recipient mice = experiment: General tolerability in recipient mice (Studies 1 and 2); type: in vivo
# Description: Uterine tissue pieces of B6-GFP mice (donor) were implanted into the peritoneal walls of recipient mice.
# The recipient mice continued receiving oral daily niclosamide treatments until mouse pups were born, after which niclosamide treatment was discontinued. Three weeks after the pups were born, on postnatal day (PND) 21, the recipient mice were necropsied and the pups were weaned.
# rats = settings: orally for 4 weeks; cited from earlier work
# [1] = rats; cited from earlier work
# [2] = after 3 weeks of treatment, 100 or 200 mg/kg b.w./day oral
smiles,measurement,setting,value
"O=C(Nc1ccc([N+](=O)[O-])cc1Cl)c1cc(Cl)ccc1O [niclosamide, 5-chloro-N-(2-chloro-4-nitrophenyl)-2-hydroxybenzamide]","% of MKI67 positive cells/total cells/0.007 mm^2, Stroma",MKI67 (Ki67); 100 mg/kg b.w./day oral,10.9 ± 1.9%
same,"% of MKI67 positive cells/total cells/0.007 mm^2, Epithelium","MKI67 (Ki67); 100 mg/kg b.w./day oral, control 61.6 ± 5.9, 100 mg/kg/day",50.1±7.9%
same,"% of MKI67 positive cells/total cells/0.007 mm^2, Epithelium","MKI67 (Ki67); 100 mg/kg b.w./day oral, control 61.6 ± 5.9, listed as Niclosamide, 100 mg/kg/day",50.1 ± 7.9%
same,"% of MKI67 positive cells/total cells/0.007 mm^2, Stroma",MKI67 (Ki67); 200 mg/kg b.w./day oral,7.9 ± 1.9%
same,"% of MKI67 positive cells/total cells/0.007 mm^2, Epithelium","MKI67 (Ki67); 200 mg/kg b.w./day oral, control 61.6 ± 5.9, p < 0.05, 200 mg/kg/day",37.7±7.2%
same,"% of MKI67 positive cells/total cells/0.007 mm^2, Epithelium","MKI67 (Ki67); 200 mg/kg b.w./day oral, control 61.6 ± 5.9, p < 0.05, listed as Niclosamide, 200 mg/kg/day",37.7 ± 7.2 %
same,Cell number of PECAM1 positive cells/0.02 mm^2,PECAM1 (CD31); 100 mg/kg b.w./day oral,34.7 ± 3.6 cells/0.02 mm^2
same,Cell number of PECAM1 positive cells/0.02 mm^2,PECAM1 (CD31); 200 mg/kg b.w./day oral,32.7 ± 2.8 cells/0.02 mm^2
same,"% of ESR1 positive cells/total cells/0.007 mm^2, Stroma",ESR1; 100 mg/kg b.w./day oral,55.9 ± 5.5%
same,"% of ESR1 positive cells/total cells/0.007 mm^2, Epithelium",ESR1; 100 mg/kg b.w./day oral,96.6 ± 2.0%
same,"% of ESR1 positive cells/total cells/0.007 mm^2, Stroma",ESR1; 200 mg/kg b.w./day oral,37.7 ± 5.7%
same,"% of ESR1 positive cells/total cells/0.007 mm^2, Epithelium",ESR1; 200 mg/kg b.w./day oral,82.6 ± 5.6%
same,"% of p-STAT3 positive cells/total cells/0.007 mm^2, Stroma",p-STAT3; 100 mg/kg b.w./day oral,6.9 ± 1.9%
same,"% of p-STAT3 positive cells/total cells/0.007 mm^2, Epithelium","p-STAT3; 100 mg/kg b.w./day oral, control 54.1 ± 3.9",59.0 ± 5.4%
same,"% of p-STAT3 positive cells/total cells/0.007 mm^2, Stroma",p-STAT3; 200 mg/kg b.w./day oral,4.1 ± 1.0%
same,"% of p-STAT3 positive cells/total cells/0.007 mm^2, Epithelium","p-STAT3; 200 mg/kg b.w./day oral, control 54.1 ± 3.9, p < 0.001",26.4 ± 3.8 %
same,"% of PTGS2 positive cells/total cells/0.007 mm^2, Stroma",PTGS2 (COX2); 100 mg/kg b.w./day oral,20.3 ± 3.3%
same,"% of PTGS2 positive cells/total cells/0.007 mm^2, Epithelium",PTGS2 (COX2); 100 mg/kg b.w./day oral,98.2 ± 0.5%
same,"% of PTGS2 positive cells/total cells/0.007 mm^2, Stroma",PTGS2 (COX2); 200 mg/kg b.w./day oral,22.8 ± 2.0%
same,"% of PTGS2 positive cells/total cells/0.007 mm^2, Epithelium",PTGS2 (COX2); 200 mg/kg b.w./day oral,98.7 ± 0.7%
same,lesion sizes on PND 21,endometriotic lesions,maintained the reduction of lesion sizes
same,adverse effects including weight loss in recipient mice,recipient mice; [2],no obvious adverse effects
same,estrous cyclicity by vaginal cytology,recipient mice; [2],observed in all mice
same,"adverse reactions, such as weight loss or changes in behavior in the recipient mice",recipient mice; daily 200 mg/kg b.w. for three (Study 1) to four weeks (Study 2),did not cause any adverse reactions
same,dose that elicits no adverse effects,rats,up to 2000 mg/kg daily
same,plasma half-life,[1],7 h

# From patent publication US20200315996A1 (Board of Trustees, Southern Illinois University, priority 2016, published 2020)
